Measured values as given in patent publication EP0306455A1, “Cyclodextrin complexes of bis-biguanido hexane compounds” (WARNER-LAMBERT COMPANY, priority 1987, dated 1989).
Counter-ions that a name gives are not always drawn. Like-named read-outs stand apart in the source and are kept apart here.

Tests used:
[1] = Procedure: Free chlorhexidine has a water solubility of about 8 mg. per 100 ml. of water at room temperature.
[2] = background statement, temperature not given; dihydrochloride; cited from earlier work
[3] = tested on: S. anaguis; assay: Anti-microbial activity (MIC and MLC); format: cell-based; settings: complex compared with uncomplexed chlorhexidine digluconate
Excerpt: (§1) A comparison of the anti-microbial activity of chlorhexidine digluconate and beta-cyclodextrin complexed chlorhexidine digluconates were compared against four microorganisms, C.albicans, S. anaguis, S.mutans and A.viscosus.

[4] = tested on: A.viscosus; assay: Anti-microbial activity (MIC and MLC); format: cell-based; settings: complex compared with uncomplexed chlorhexidine digluconate
Excerpt: as §1

[5] = tested on: S.mutans; assay: Anti-microbial activity (MIC and MLC); format: cell-based; settings: complex compared with uncomplexed chlorhexidine digluconate
Excerpt: as §1

[6] = tested on: C.albicans; assay: Anti-microbial activity (MIC and MLC); format: cell-based; settings: complex compared with uncomplexed chlorhexidine digluconate
Excerpt: as §1

water solubility ([1]; water) | water solubility [1] | SMILES | water solubility [2] | minimum inhibitory concentration (MIC) [3] | minimum lethal concentration (MLC) [3] | minimum inhibitory concentration (MIC) [4] | minimum lethal concentration (MLC) [4] | minimum inhibitory concentration (MIC) [5] | minimum lethal concentration (MLC) [5] | minimum inhibitory concentration (MIC) [6] | minimum lethal concentration (MLC) [6]
60 mg. per 100 ml. of water | – | [H]/N=C(\N/C(=N/[H])NCCCCCCNC(=N)NC(=N)Nc1ccc(Cl)cc1)Nc1ccc(Cl)cc1 [chlorhexidine dihydrochloride] | ~60 mg per 100 ml of water | – | – | – | – | – | – | – | –
– | – | N=C(NCCCCCCNC(=N)NC(=N)Nc1ccc(Cl)cc1)NC(=N)Nc1ccc(Cl)cc1 [chlorhexidine digluconate] | – | similar | similar | similar | similar | similar | similar | similar | similar
8 mg. per 100 ml. of water | about 8 mg. per 100 ml. of water | [H]/N=C(\N/C(=N/[H])NCCCCCCNC(=N)NC(=N)Nc1ccc(Cl)cc1)Nc1ccc(Cl)cc1 [chlorhexidine, 1,6-di(p-chlorophenylbiguanides) hexane] | – | – | – | – | – | – | – | – | –
